In test [1] the test system is human fibroblasts. Description: Collagen synthesis / collagen proliferation performance (3H-proline incorporation, RCB). The format is cell-based. The conditions noted are these: for collagen proliferation, result in words (Table 2, FIG. 4): concentrations 10^−6 to 10^−4. On the procedure:
In order to determine degree of collagen synthesis, human fibroblasts were cultured in a 24-well microtiter plate. The same sample as used for cell proliferation was diluted in a rate of 1/10 in a culture medium and the diluted sample was added to the cultured fibroblasts. The samples used herein were vitamin C, genistein, cyclodextrin, and the inclusion-complexes prepared in Examples 1 and 2.
At 3 days after culture, 0.5 ml of 10% FBS containing DMEM medium was added to each well, followed by adding 10 μCi of L[2,3,4,5-3H]-proline thereto. After 24 hours, the medium and the cells were collected from the well and fed into a 5% trichloroacetic acid (TCA) solution to rinse the product. The rinsed product was plated in two test tubes. 1 unit/μl of Type I collagenase was added to one of the test tubes and cultured at 37° C. for 90 minutes, while the other test tube was stored at 4° C.
After that, adding 0.05 ml of 50% TCA to both the test tubes and leaving the same at 4° C. for 20 minutes, each of the test tubes was subjected to centrifugation at 12,000 rpm for 10 minutes. The resultant supernatant and precipitate were detected using a liquid scintillation counter (LSC) to measure decay per minute (dpm) values. The measured dpm values were used to calculate relative collagen biosynthesis (RCB) values according to the following equation 1: RCB=collagen dpm value/{[([…])×5.4]+collagen dpm value}×100 Equation 1

Test [2] deals with human fibroblasts. Description: Fibroblast proliferation performance (MTT). The format is cell-based. To be noted: 4 days culture. On the procedure: In order to evaluate cell proliferation performance of the inclusion-complex according to the present invention, fibroblast proliferation performance was determined.
More particularly, human fibroblasts were cultured in Dulbecco s Modified Eagle's medium (DMEM) containing 2.5% fetal bovine serum (FBS) and the cultured cells were plated in a 96-well microtiter plate at 5,000 cells/well.
Each of the inclusion-complex produced in Example 1 (an inclusion-complex of β-cyclodextrin/geniste with a genistein concentration of 5%), the inclusion-complex produced in Example 2 (an inclusion-complex of hydroxypropyl β-cyclodextrin/genistein with a genistein concentration of 5%) was used as a test sample. On the other hand, genistein, retinol and tocopherol, hydroxypropyl β-cyclodextrin and β-cyclodextrin, respectively, were used as controls. Each of the samples was regulated to have a final concentration of 1 mg/ml and added to the fibroblasts, followed by additional culturing of the fibroblasts for 4 days.
After completing the culture, 50 μl of 0.2% MTT (3-[4,5-dimethylthiazol-2-yl]-2,5-diphenyltetrazolium bromide) solution was added to each well, and then, cultured at 37° C. for 4 hours. The obtained formazan was dissolved in dimethyl sulfoxide (DMSO). The formazan solution was subjected to determination of absorption at 570 nm using a microplate reader.

We go through six compounds from patent US8658692B2, “Method of preparation an inclusion-complex comprising hydrophobic physiological activation material including with cyclodextrin and its use” (Macrocare Tech., Ltd., priority 2007, dated 2014).

Turning to `OC[C@H]1O[C@@H]2O[C@H]3[C@H](O)[C@@H](O)[C@@H](O[C@H]4[C@H](O)[C@@H](O)[C@@H](O[C@H]5[C@H](O)[C@@H](O)[C@@H](O[C@H]6[C@H](O)[C@@H](O)[C@@H](O[C@H]7[C@H](O)[C@@H](O)[C@@H](O[C@H]8[C@H](O)[C@@H](O)[C@@H](O[C@H]1[C@H](O)[C@H]2O)O[C@@H]8CO)O[C@@H]7CO)O[C@@H]6CO)O[C@@H]5CO)O[C@@H]4CO)O[C@@H]3CO` [Cyclodextrin, β-cyclodextrin], the Collagen proliferation rate in the test with human fibroblasts [1] (concentration 10^−4) was 102%; with human fibroblasts [1] (concentration 10^−5), 101%; in the test with human fibroblasts [1] (concentration 10^−6), 102%. Moreover, the “collagen proliferation, result in words (Table 2, FIG. 4)” value (“collagen proliferation, result in words” for short) with human fibroblasts [1] is “not greatly improved”.
As to `O=c1c(-c2ccc(O)cc2)coc2cc(O)cc(O)c12` [Genistein], the “cell viability dependent on concentration (FIG. 2)” value (“cell viability dependent” for short) with human fibroblasts [2] is on record as “increased somewhat in proportion to concentration”. Moreover, the Collagen proliferation rate in the test with human fibroblasts [1] (concentration 10^−4) is on record as 115%; in the test with human fibroblasts [1] (concentration 10^−5) it was 112%; in the test on human fibroblasts [1] (concentration 10^−6) it was 105%. Besides, the “collagen proliferation, result in words” value in the test on human fibroblasts [1] was “more excellent effects with increased concentration”.
For `O=C1O[C@H]([C@@H](O)CO)C(O)=C1O` [Vitamin C], the Collagen proliferation rate in the test with human fibroblasts [1] (concentration 10^−4) is 98%; in the test on human fibroblasts [1] (concentration 10^−5), 105%; in the test with human fibroblasts [1] (concentration 10^−6), 106%. The “collagen proliferation, result in words” value with human fibroblasts [1] is on record as “decreased as its concentration increased”.
For the compound `CC1=C(/C=C/C(C)=C/C=C/C(C)=C/CO)C(C)(C)CCC1` [retinol], the “cell viability dependent” value in the test with human fibroblasts [2] is listed as “increased somewhat in proportion to concentration”.
Regarding hydroxypropyl β-cyclodextrin, the results for the Collagen proliferation rate in the test on human fibroblasts [1] (concentration 10^−4), in the test on human fibroblasts [1] (concentration 10^−5) and in the test with human fibroblasts [1] (concentration 10^−6) were 104%, 104% and 101%, respectively. Further, the “collagen proliferation, result in words” value in the test with human fibroblasts [1] is recorded as “not greatly improved”.
Turning to tocopherol, the “cell viability dependent” value with human fibroblasts [2] is given as “increased somewhat in proportion to concentration”.
